Assay results from patent publication US20260257186A1, “Tunable Structure of Biodegradable Silk-Based Microcapsules for Soluble and Insoluble Payload Delivery” (MASSACHUSETTS INSTITUTE OF TECHNOLOGY, priority 2021, published 2026).
≈ marks a conversion by molar mass, not a printed value.

Legend:
[1] = cited from earlier work
[2] = Release of SF/Saf microcapsules, released Saf by UV-Vis; format: physicochemical; details: without silk encapsulation; 10% Pluronic PE 10500 aqueous suspension; FIG. 5C
Procedure: Release of SF/Saf microcapsules: around 5 mg of different SF/Saf microcapsules were dispersed in 50 mL of 10% Pluronic PE 10500 aqueous suspension, wrapped in Al foil and under 20 rpm mind shaking. After certain time intervals, 0.75 mL of suspension was taken for UV-Vis measurement to determine the concentration of released Saf. The characteristic UV absorption peak position of Saf is around 271 nm.
All release and degradation tests were run in triplicates, and the standard errors for the analytical results were used to generate and present error bars.
The surface morphologies of microcapsules structures were investigated using a Zeiss Merlin High-resolution SEM operating at 0.8 kV for low-, medium- and high-resolution imaging. The elemental analysis was carried out on Zeiss Merlin SEM with energy-dispersive X-ray spectroscopy (EDS). Optical images of SF/DA emulsions were taken with a Nikon Eclipse TE2000-E optical microscope. The concentrations of released VC and Saf were determined by ultraviolet-visible (UV-Vis) spectroscopy on a VWR UV-1600PC spectrophotometer. Chemical structures of SF were studied with Fourier transform infrared (FTIR) spectroscopy from a Perkin Elmer Spectrum 65 spectrometer with the attenuated total reflection (ATR) accessory. […] The data was analyzed on volume-based distribution.

In the case of `CC(C)N(C)S(=O)(=O)NC(=O)c1cc(-n2c(=O)cc(C(F)(F)F)n(C)c2=O)c(F)cc1Cl` [Saf, Saflufenacil], the “solubility in organic solvents” value ([1]; organic solvents) is listed as “limited”, the “thermal decomposition T” value ([1]; solid powder) is listed as “around 236 °C” and the solubility in water ([1]; water) is listed as 2 g/L (≈ 3.99 mM). For the same compound, the “burst release of Saf” value [2] was ~25%.
